In ChEMBL document CHEMBL1201862, “PubChem BioAssay data set” (2004):
Activity calls are given as the source filed them.

Columns and labels:
[1] = molecular target: T1, Alkaline phosphatase, tissue-nonspecific isozyme (Homo sapiens, UniProt P05186)
T1 sequence (P05186 whole entry): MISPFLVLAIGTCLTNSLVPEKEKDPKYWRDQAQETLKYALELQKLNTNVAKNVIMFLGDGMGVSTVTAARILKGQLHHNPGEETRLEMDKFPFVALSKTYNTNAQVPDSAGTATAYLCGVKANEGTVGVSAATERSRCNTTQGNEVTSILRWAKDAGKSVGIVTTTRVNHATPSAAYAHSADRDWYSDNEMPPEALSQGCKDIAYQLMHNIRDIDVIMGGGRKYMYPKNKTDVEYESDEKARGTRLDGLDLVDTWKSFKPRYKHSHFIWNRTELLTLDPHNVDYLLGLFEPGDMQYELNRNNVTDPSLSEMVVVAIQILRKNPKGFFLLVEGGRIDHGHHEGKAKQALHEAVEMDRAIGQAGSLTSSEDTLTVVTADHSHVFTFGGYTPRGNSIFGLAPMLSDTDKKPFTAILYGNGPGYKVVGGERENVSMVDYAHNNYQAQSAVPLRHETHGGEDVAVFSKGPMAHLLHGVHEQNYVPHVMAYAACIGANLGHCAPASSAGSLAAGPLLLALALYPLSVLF

[2] = HPDE-C7 pancreatic duct cell viability loss – fluorescence, HTS (AID 430); format: functional, cell-based; conditions: Homo sapiens
[3] = viability loss of HPDE-C7K cells – cell-based, fluorescence, HTS, primary screen (AID 431); format: functional; conditions: Homo sapiens
[4] = molecular target: T2, Replicative DNA helicase DnaB (Mycobacterium tuberculosis, UniProt P9WMR3); assay: DnaB intein splicing inhibitors, dose response, biochemical, cell-free fluorescence (AID 449749); format: functional
T2 sequence (P9WMR3 whole entry): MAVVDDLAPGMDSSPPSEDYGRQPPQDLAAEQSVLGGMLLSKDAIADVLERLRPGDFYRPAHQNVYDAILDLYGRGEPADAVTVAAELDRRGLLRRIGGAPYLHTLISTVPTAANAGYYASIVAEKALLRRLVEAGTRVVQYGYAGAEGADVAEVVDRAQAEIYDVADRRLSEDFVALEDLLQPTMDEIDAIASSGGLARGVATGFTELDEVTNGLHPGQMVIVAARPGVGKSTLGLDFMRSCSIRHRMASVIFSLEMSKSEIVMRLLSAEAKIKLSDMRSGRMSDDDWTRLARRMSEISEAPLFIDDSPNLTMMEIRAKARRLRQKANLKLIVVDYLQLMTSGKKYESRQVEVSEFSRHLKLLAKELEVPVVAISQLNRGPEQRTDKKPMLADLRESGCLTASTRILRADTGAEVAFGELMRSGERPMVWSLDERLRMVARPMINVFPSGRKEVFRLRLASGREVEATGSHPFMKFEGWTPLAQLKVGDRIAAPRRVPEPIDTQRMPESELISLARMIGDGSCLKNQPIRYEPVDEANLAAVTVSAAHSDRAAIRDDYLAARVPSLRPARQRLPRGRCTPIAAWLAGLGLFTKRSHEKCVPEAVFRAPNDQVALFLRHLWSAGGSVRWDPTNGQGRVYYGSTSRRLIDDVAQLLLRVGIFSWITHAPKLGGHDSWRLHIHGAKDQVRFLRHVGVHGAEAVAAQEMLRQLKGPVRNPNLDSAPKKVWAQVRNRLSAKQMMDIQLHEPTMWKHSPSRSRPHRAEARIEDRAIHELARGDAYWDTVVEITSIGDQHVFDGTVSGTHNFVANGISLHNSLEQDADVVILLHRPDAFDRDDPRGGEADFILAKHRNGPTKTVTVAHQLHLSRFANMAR

[5] = molecular target: Heat shock protein HSP 90-alpha (Homo sapiens, UniProt P07900); format: functional, organism-based
Protein RecA = molecular target: T3, Protein RecA (Mycobacterium tuberculosis, UniProt P9WHJ3); assay: Fluorescence Cell-Free Homogeneous Dose Retest to Identify Inhibitors of RecA-Intein Splicing Activity. [Related pubchem assays (depositor defined):AID2097, AID2223, AID489010, AID492950]; format: functional
T3 sequence (P9WHJ3 whole entry): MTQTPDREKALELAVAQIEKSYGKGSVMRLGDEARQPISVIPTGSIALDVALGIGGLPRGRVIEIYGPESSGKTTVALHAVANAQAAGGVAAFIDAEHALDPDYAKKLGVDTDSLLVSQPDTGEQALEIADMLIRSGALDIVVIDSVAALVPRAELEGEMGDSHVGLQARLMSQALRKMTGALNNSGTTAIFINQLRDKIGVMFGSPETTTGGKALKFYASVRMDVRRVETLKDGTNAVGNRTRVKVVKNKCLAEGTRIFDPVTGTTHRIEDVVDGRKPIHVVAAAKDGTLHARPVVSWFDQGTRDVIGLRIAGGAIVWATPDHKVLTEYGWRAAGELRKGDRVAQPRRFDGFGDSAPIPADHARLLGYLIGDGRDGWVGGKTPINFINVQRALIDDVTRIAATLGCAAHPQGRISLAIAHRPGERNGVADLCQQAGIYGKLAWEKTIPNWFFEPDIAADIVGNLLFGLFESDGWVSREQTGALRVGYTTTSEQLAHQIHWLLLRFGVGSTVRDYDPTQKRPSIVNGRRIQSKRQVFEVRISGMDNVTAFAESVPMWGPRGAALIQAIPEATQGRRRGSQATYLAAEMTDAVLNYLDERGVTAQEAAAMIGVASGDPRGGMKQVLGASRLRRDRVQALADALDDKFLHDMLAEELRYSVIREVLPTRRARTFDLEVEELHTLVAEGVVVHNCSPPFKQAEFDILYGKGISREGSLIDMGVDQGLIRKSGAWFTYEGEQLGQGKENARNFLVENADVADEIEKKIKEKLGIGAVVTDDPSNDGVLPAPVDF

[6] = glucagon-like peptide-1 release potency in STC-1, concentration-response, half-maximal inhibitory concentration in the STC-1 line (AID 1117345); format: functional, cell-based
[7] = Potency on glucagon-like peptide 1 release, dose-response in NCI-H716 cell line, half maximal inhibitory concentration (AID 1117344); format: functional, cell-based
[8] = molecular target: T4, Neuropeptides B/W receptor type 1 (Homo sapiens, UniProt P48145); assay: Fluorescence-based dose response cell-based high throughput screening assay to identify antagonists of the G-protein coupled receptor 7 (GPR7). [Related pubchem assays: 1952 (Screening assay (GPR7 antagonists).), 1880 (Summary AID.)]; format: functional
T4 sequence (P48145 whole entry): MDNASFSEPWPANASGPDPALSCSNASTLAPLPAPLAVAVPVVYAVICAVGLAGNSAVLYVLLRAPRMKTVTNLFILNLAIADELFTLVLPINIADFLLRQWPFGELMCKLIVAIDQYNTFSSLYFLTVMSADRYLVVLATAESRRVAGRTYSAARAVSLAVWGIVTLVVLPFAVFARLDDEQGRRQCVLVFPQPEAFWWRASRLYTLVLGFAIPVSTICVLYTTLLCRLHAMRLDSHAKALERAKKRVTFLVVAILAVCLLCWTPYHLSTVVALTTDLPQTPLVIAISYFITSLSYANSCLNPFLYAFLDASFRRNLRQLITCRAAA

[9] = molecular target: Melanin-concentrating hormone receptor 1 (Homo sapiens, UniProt Q99705); assay: Fluorescence-based counterscreen for antagonists of the G-protein coupled receptor 7 (GPR7): cell-based high throughput dose response assay to identify antagonists of the melanin-concentrating hormone receptor 1 (MCHR1).; format: functional
Melanin-concentrating hormone receptor 1, sequence (Q99705 whole entry): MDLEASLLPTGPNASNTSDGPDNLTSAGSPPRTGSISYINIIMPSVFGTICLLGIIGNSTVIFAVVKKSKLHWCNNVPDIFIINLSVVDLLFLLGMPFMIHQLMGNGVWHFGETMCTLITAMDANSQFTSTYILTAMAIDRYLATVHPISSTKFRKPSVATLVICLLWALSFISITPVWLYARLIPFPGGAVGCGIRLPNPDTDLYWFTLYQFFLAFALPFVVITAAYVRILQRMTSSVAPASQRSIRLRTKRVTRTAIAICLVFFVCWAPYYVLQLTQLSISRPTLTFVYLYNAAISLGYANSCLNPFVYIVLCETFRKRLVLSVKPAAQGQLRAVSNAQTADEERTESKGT

Cytochrome P450 2C19 = Cytochrome P450 2C19 (Homo sapiens, UniProt P33261); assay: qHTS Assay for Inhibitors and Substrates of Cytochrome P450 2C19. [Related pubchem assays: 410 ]; format: ADME; conditions: read-out: Potency
Cytochrome P450 2C19, sequence (P33261 whole entry): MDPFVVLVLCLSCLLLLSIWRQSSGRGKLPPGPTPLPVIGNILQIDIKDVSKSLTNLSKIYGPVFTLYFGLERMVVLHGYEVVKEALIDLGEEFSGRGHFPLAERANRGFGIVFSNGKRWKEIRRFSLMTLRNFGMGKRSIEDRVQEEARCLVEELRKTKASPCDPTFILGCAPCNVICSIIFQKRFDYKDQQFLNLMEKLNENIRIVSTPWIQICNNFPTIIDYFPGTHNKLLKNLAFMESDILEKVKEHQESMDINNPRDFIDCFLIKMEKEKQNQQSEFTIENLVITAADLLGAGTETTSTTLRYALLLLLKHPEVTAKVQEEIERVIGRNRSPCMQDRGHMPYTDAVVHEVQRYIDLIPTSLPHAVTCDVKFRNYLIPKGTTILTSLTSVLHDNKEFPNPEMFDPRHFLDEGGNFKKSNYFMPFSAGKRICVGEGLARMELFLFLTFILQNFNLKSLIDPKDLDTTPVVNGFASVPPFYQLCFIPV

Cytochrome P450 2C9 = Cytochrome P450 2C9 (Homo sapiens, UniProt P11712); conditions: Potency
Cytochrome P450 2C9, sequence (P11712 whole entry): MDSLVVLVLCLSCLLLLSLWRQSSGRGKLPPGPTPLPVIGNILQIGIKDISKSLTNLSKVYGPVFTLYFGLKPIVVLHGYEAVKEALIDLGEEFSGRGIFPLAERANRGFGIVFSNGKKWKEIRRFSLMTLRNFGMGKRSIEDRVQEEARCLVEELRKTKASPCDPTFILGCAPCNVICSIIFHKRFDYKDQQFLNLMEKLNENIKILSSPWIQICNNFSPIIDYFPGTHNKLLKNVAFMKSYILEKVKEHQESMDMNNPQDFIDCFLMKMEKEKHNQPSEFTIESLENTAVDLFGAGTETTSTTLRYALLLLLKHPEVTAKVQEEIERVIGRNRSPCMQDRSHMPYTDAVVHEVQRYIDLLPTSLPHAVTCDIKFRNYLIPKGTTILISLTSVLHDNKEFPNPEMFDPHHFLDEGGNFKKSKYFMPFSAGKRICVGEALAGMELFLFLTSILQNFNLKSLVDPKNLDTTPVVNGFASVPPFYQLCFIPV

Aminopeptidase N = molecular target: T5, Aminopeptidase N (Plasmodium falciparum FcB1/Columbia, UniProt O96935); assay: malaria alanyl aminopeptidase activity blockers – biochemical, fluorogenic H-Leu-NHMec substrate, 1536-well (AID 1445); set-up: species or system Plasmodium falciparum 3D7, 3D7
T5 sequence (O96935 whole entry): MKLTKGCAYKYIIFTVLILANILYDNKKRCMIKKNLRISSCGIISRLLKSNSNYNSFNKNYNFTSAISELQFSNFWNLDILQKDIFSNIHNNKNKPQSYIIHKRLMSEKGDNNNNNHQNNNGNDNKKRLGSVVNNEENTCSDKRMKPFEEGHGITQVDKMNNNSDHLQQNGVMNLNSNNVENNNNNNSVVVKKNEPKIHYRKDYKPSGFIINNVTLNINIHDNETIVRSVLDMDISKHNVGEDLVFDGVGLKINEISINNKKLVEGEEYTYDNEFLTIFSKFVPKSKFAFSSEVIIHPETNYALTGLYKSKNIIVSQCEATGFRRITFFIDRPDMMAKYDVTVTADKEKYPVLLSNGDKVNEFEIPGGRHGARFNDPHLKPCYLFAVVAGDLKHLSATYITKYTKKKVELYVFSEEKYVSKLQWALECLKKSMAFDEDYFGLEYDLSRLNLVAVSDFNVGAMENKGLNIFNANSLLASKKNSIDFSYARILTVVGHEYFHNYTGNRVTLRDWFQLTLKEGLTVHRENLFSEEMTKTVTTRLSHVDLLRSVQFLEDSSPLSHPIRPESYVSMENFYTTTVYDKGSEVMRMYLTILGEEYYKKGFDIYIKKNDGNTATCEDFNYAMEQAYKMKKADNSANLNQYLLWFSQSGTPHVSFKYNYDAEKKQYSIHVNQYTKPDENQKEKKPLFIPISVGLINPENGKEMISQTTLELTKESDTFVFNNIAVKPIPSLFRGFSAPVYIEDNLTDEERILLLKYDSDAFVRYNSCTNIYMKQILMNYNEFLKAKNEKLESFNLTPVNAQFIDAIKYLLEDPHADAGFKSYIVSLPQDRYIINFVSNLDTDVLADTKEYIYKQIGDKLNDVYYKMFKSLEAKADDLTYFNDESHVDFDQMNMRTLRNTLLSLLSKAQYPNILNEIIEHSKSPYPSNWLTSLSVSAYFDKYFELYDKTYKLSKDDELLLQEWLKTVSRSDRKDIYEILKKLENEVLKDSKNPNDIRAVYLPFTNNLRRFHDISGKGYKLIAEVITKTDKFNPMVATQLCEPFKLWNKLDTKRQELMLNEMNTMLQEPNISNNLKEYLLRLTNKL

[10] = CCR5-tropic HIV-1 fusion blockers – cell-based, CCR5-tropic Env, dose response (AID 2279); format: functional
[11] = molecular target: T6, High affinity choline transporter 1 (Homo sapiens, UniProt Q9GZV3); assay: human choline transporter blockers, potency – cell-based, 5-point CRC, membrane potential dye, dose response (AID 504840); format: functional
T6 sequence (Q9GZV3 whole entry): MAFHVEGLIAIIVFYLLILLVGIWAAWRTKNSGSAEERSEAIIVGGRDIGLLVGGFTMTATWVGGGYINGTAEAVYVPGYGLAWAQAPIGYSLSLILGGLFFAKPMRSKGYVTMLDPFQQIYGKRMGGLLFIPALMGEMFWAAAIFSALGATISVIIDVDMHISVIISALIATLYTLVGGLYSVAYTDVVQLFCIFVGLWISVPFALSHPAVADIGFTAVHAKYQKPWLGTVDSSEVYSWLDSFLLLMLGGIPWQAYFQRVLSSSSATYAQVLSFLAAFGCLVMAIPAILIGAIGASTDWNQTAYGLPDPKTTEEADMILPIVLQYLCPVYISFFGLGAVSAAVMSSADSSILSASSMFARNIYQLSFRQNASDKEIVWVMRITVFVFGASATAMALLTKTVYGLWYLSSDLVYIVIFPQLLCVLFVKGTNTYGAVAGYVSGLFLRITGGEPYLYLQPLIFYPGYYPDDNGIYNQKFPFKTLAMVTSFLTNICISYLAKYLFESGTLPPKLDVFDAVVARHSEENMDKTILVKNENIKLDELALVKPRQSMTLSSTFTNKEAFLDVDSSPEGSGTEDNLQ

[12] = blockers of HIV-1 envelope-mediated cell-cell fusion – cherry-pick, dose response (AID 652057); format: functional, cell-based
[13] = off-target signal loss in HeLa-CEM21 co-culture – HeLa F-luc CTL cells, cherry-picked, counter-screen for HIV-1 Env fusion inhibitor project, dose response (AID 652040); format: functional, cell-based;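 also: potency for signal decrease marking cytotoxic or nonspecific inhibition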
[14] = HIV-1 AD8 envelope cell-cell fusion blockers – cherry-pick, dose response (AID 652062); format: functional, cell-based;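 also: luciferase signal from cell-cell fusion driven by HIV-1 clade B AD8 Env; potency is for inhibitors of fusion seen as a drop in luminescence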

Q: Which EC50 [1] does the source give for `Clc1ccc(CSC(Cn2ccnc2)c2ccc(Cl)cc2Cl)cc1` (stereo not drawn) [SULCONAZOLE NITRATE] here?
A: Its EC50 is 60.3 µM (not active).

Q: And the EC50 [2]?
A: The EC50 was 7.1 µM (active).

Q: What about the EC50 [3] of the same compound?
A: The EC50 was 8.21 µM (active).

Q: And the AC50 [4]?
A: The AC50 was 3.52 µM (active).

Q: And the AC50 [5]?
A: Its AC50 is 0.294 µM (active).

Q: And the EC50 (Protein RecA)?
A: The EC50 was 9.78 µM (active).

Q: And the IC50 [6]?
A: Its IC50 is > 40 µM (inactive).

Q: What about the IC50 [7] of the same compound?
A: Its IC50 is 21 µM (inactive).

Q: For `Cc1ccc(C(=O)N2CCCCC2)cc1S(=O)(=O)N1CCCCCC1`, which IC50 [8] is on record?
A: Its IC50 is > 43.8 µM (not active).

Q: What about the IC50 [9] of the same compound?
A: The IC50 was > 43.8 µM (not active).

Q: With `CCCCCCCCCCCCCCCCOC[C@@H](COCC(F)(F)F)OP(=O)(O)OCO` as the compound, how does the AC50 (Cytochrome P450 2C19) read?
A: The AC50 was 0.002 µM (inconclusive).

Q: What about the AC50 (Cytochrome P450 2C9) of the same compound?
A: Its AC50 is 39.8 µM (inconclusive).

Q: With `O=S(=O)(Nc1nc2ccccc2nc1Nc1cccc(S(=O)(=O)N2CCCCC2)c1)c1ccccc1` as the compound, how does the IC50 (Aminopeptidase N) read?
A: The IC50 was 91.9 µM (active).

Q: What about the IC50 [10] of the same compound?
A: The IC50 was 5.7 µM (active).

Q: And the IC50 [11]?
A: Its IC50 is 12 µM (active).

Q: And the AC50 [12]?
A: Its AC50 is 8.16 µM (active).

Q: What about the AC50 [13] of the same compound?
A: Its AC50 is 23.9 µM (active).

Q: What about the AC50 [14] of the same compound?
A: The AC50 was 12 µM (active).
